Data on one compound can be found in article PMC8000760, “Potential Effect of Pseudevernia furfuracea (L.) Zopf Extract and Metabolite Physodic Acid on Tumour Microenvironment Modulation in MCF-10A Cells” (Biomolecules, 2021).

One assay has as its system BJ-5ta. Description: MTS cell viability assay. To be noted: 72 h. It is filed as cell-based. As for the experimental part: Briefly, MCF-10A and BJ-5ta were seeded in 96-well culture plates, and after 24 h incubation, treated with various ranges of concentrations of tested compounds (10–100 μg/mL) for 72 h. At the same time, HUVECs were seeded in a gelatine-coated 96-well plate and treated with the same aliquots of indicated compounds in the presence or absence of VEGF (Vascular endothelial growth factor) (25 ng/mL) for 48 h. Cell viability was evaluated by measuring the absorbance at 490 nm using the automated CytationTM 3 Cell Imaging Multi-Mode Reader (Biotek, Winooski, VT, USA). Three independent experiments were performed at different intervals.

Assay [1] relates to N-cadherin in TGF-β-stimulated MCF-10A cells. Description: N-cadherin expression, flow cytometry. To be noted: IC10, 24, 48, 72 h, compared to TGF-β alone. It is filed as cell-based, human. As for the experimental part: (§1) The MCF-10A and BJ-5ta cells were seeded and cultivated for 24 h in a complete medium. One day after seeding, 30 ng/mL of TGF-β was added and cultivated for 7 days (d). TGF-β was added to induce epithelial–mesenchymal transition in tested cell lines. Lichen extract P. furfuracea (L.) Zopf and its metabolite physodic acid were added at time 0 h and then incubated for 24, 48 and 72 h for various analyses, as described in Figure 1.
The MCF-10A cells (1 × 10^4/well) were seeded in Petri dishes and stimulated with […] TGF-β for 7 days. […] After detaching, using Trypsin/EDTA, cells were harvested and pelleted by centrifugation at 1200 rpm for 5 min. Pellet was re-suspended in PBS and divided for a particular analysis. Cells were stained prior to analyses with E-Cadherin Mouse mAb (Alexa Fluor 488 conjugate) or N-cadherin Rabbit mAb (Alexa Fluor 647 conjugate) (Cell Signalling) for 15 min at RT in the dark. For the cell cycle analyses, cells were re-suspended in staining solution (final concentration 0.1% Triton X-100, 0.5 mg/mL ribonuclease A and 0.025 mg/mL propidium iodide (PI)), and incubated in the dark at RT for 30 min. All samples were analysed using a FACS Calibur flow cytometer (Becton Dickinson, San Jose, CA, USA). The IgG isotype control checking was performed for every used antibody.

Assay [2] shares this test system. In words: N-cadherin expression, immunofluorescence staining. The settings on record: IC10, 72 h, compared to TGF-β alone. It is filed as cell-based, human. The method, then:
as §1
(§2) The MCF-10A cells at a density of 2 × 10^3/cm^2, plated on 22 mm^2 glass coverslips, were stimulated for 7 days with 30 ng/mL of TGF-β. […] After treatment, cells were washed with PBS, fixed with 4% paraformaldehyde (pH 7.2) for 10 min, permeabilised by 0.1% Triton X-100 (Sigma-Aldrich) for 10 min at RT and then washed three) times with PBS for 5 min. Glass coverslips were then incubated with Swine serum (1:30) for 30 min for blocking non-specific binding. Primary antibodies were diluted according to the manufacturer’s instructions (Table 2) and transferred to coverslips for 90 min. […] All coverslips were mounted in Vectashield (Cole-Parmer, Illinois, USA) and immunofluorescence pictures were taken with the same exposition settings by the Nikon Eclipse 90i fluorescence microscope (Nikon, Tokyo, Japan) equipped with filter cubes for FITC and DAPI. Images were then analysed using ImageJ (NIH) software.

Assay [3] relates to fibronectin in TGF-β-stimulated MCF-10A cells. In words: Fibronectin expression, immunofluorescence. The assay is classed as cell-based, human. To be noted: IC10, TGF-β-stimulated MCF-10A. As for the experimental part:
as §1, §2

Broadly, the IC10 is the point of the concentration-response curve where the effect stands at 10%. For orientation: IC50 means the midpoint of a concentration-inhibition curve. Read a high IC50 as lower potency. In the assay with BJ-5ta, `CCCCCC(=O)Cc1cc(O)cc2c1C(=O)Oc1cc(O)c(C(=O)O)c(CCCCC)c1O2` [Phy, physodic acid] displayed a concentration for an effect of 10% (IC10) of 46.35 ± 0.39 µM and a concentration for half-maximal inhibition (IC50) of 83.2 ± 1.02 µM. Besides, the “N-cadherin expression, flow cytometry” value in assay [1] is “significantly reduced”. Also, the “N-cadherin expression, immunofluorescence” value in assay [2] is listed as “significant decrease”. The “fibronectin expression, immunofluorescence” value in assay [3] is listed as “downregulation”.
